# Data reported in patent US20230250083A1, “CRYSTALS” (NIPPON SHINYAKU CO., LTD., priority 2017, published 2023).
# How the values were obtained:
# [1] = Crystallization experiment, operation procedure 1 (suspension stirred 2 days, cooled and warmed between 4 to 40° C.); type: physicochemical; parameters: key: —: The symbol “-” in Table 1 to Table 3 means that no precipitate was obtained
# Method: (§1) Each of various solvents was added to the Form-I crystal of the present invention (several mg), crystals of the compound A were precipitated according to the following operation procedures, and the crystal form of the precipitated crystals was confirmed. The results of the operation procedures 1 to 3 are shown in Table 1 and Table 2, and the results of the operation procedure 4 are shown in Table 3. The symbol “-” in Table 1 to Table 3 means that no precipitate was obtained.
# Each of various solvents (50 μL) was added to the Form-I crystal of the present invention to make a suspension thereof, and the suspension was stirred for 2 days while repeatedly being cooled and warmed between 4 to 40° C.
# [2] = Crystallization experiment, operation procedure 2 (dissolved at 40° C., cooled to 4° C., stirred 3 days); type: physicochemical; parameters: key: —: The symbol “-” in Table 1 to Table 3 means that no precipitate was obtained
# Method: as §1
# Each of various solvents (50 μL) was added to the Form-I crystal of the present invention to dissolve the Form-I crystal of the present invention at 40° C. […] The solution was cooled to 4° C. and stirred for 3 days.
# [3] = Crystallization experiment, operation procedure 3 (dissolved at 40° C., solvent gradually distilled off at room temperature); type: physicochemical; parameters: key: —: The symbol “-” in Table 1 to Table 3 means that no precipitate was obtained
# Method: as §1
# Each of various solvents (50 μL) was added to the Form-I crystal of the present invention to dissolve the Form-I crystal of the present invention at 40° C. […] The solvent was gradually distilled off at room temperature.
# [4] = Crystallization experiment, operation procedure 4 (saturated solution, poor solvent added); type: physicochemical; parameters: key: —: The symbol “-” in Table 1 to Table 3 means that no precipitate was obtained
# Method: Each of various solvents was added to the Form-I crystal of the present invention (several mg), crystals of the compound A were precipitated according to the following operation procedures, and the crystal form of the precipitated crystals was confirmed. The results of the operation procedures 1 to 3 are shown in Table 1 and Table 2, and the results of the operation procedure 4 are shown in Table 3. The symbol “-” in Table 1 to Table 3 means that no precipitate was obtained. Each of various dissolving solvents (minimum volume) was added to the Form-I crystal of the present invention to prepare a saturated solution. Various poor solvents were added thereto.
# [5] = biological target: JAK2 tyrosine kinase (Homo sapiens, UniProt O60674); conditions: see PATENT DOCUMENT 1; cited from earlier work
# Sequence of JAK2 tyrosine kinase (O60674 whole entry): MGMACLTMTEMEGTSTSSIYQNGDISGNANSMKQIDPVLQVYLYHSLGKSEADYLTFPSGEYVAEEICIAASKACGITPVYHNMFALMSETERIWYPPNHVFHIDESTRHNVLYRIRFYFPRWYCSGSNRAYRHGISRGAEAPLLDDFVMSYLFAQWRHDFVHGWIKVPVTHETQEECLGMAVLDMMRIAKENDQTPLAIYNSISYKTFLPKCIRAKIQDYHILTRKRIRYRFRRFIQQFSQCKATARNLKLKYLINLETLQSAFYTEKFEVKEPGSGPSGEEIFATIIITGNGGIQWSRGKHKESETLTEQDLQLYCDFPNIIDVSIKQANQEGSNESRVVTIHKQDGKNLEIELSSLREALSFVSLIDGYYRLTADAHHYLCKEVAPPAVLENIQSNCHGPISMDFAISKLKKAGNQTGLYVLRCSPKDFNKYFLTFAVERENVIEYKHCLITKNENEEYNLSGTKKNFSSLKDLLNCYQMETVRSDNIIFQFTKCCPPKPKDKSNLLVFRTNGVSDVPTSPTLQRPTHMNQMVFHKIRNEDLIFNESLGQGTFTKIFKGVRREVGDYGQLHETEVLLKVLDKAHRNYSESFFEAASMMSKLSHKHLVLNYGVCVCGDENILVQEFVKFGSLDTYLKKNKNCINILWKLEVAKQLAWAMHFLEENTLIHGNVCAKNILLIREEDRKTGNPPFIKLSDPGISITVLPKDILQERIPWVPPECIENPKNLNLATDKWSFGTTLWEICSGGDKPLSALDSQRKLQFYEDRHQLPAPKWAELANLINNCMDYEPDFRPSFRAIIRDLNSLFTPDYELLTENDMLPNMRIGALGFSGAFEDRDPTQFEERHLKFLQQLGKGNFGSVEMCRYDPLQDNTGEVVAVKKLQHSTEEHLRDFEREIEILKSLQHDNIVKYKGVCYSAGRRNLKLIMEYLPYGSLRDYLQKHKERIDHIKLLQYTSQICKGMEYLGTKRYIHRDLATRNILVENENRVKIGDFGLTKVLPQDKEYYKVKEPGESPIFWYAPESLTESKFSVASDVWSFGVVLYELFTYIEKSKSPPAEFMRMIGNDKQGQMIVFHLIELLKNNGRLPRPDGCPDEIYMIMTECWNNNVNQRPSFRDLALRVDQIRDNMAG
# [6] = solvent 1,4-dioxane:water 80:20
# [7] = solvent acetonitrile:dimethyl sulfoxide 80:20
# [8] = solvent acetonitrile:water 80:20
# [9] = solvent acetonitrile:water 95:5
# [10] = solvent ethanol:dimethyl sulfoxide 80:20
# [11] = solvent tetrahydrofuran:water 20:80
# [12] = solvent tetrahydrofuran:water 95:5
structure (smiles),measurement,setting,value
"C[C@H](Nc1cc(-c2cnn(C)c2)cc(Nc2cnccn2)n1)c1ccc(F)cc1.O=C(O)/C=C\C(=O)O [compound A, (S)-N^2-[1-(4-fluorophenyl)ethyl]-4-(1-methyl-1H-pyrazol-4-yl)-N^6-(pyrazin-2-yl)pyridine-2,6-diamine maleate]",crystal form of the precipitated crystals,"[1]; solvent 1,4-dioxane",Form-I
same,crystal form of the precipitated crystals,[1]; [6],Form-I
same,crystal form of the precipitated crystals,[1]; solvent 1-butanol,Form-I
same,crystal form of the precipitated crystals,[1]; solvent 1-methoxy-2 -propanol,Form-I
same,crystal form of the precipitated crystals,[1]; solvent 1-propanol,Form-I
same,crystal form of the precipitated crystals,[1]; solvent 2-methoxyethanol,Form-I
same,crystal form of the precipitated crystals,[1]; solvent 2-methoxyethyl ether,Form-I
same,crystal form of the precipitated crystals,[1]; solvent 2-propanol,Form-I
same,crystal form of the precipitated crystals,[1]; solvent 2-propanol:water 80:20,Form-I
same,crystal form of the precipitated crystals,[1]; solvent 2-propanol:water 95:5,Form-I
same,crystal form of the precipitated crystals,"[1]; solvent N,N-dimethylformamide",—
same,crystal form of the precipitated crystals,[1]; solvent N-methylpyrrolidone,—
same,crystal form of the precipitated crystals,[1]; solvent acetone,Form-I
same,crystal form of the precipitated crystals,[1]; solvent acetone:water 20:80,Form-I
same,crystal form of the precipitated crystals,[1]; solvent acetone:water 80:20,Form-I
same,crystal form of the precipitated crystals,[1]; solvent acetone:water 95:5,Form-I
same,crystal form of the precipitated crystals,[1]; solvent acetonitrile,Form-I
same,crystal form of the precipitated crystals,[1]; [7],Form-I
same,crystal form of the precipitated crystals,[1]; [8],Form-I
same,crystal form of the precipitated crystals,[1]; [9],Form-I
same,crystal form of the precipitated crystals,[1]; solvent chlorobenzene,Form-I
same,crystal form of the precipitated crystals,[1]; solvent chloroform,Form-I
same,crystal form of the precipitated crystals,[1]; solvent cyclohexane,Form-I
same,crystal form of the precipitated crystals,[1]; solvent cyclohexanone,Form-I
same,crystal form of the precipitated crystals,[1]; solvent dichloromethane,Form-I
same,crystal form of the precipitated crystals,[1]; solvent dimethyl carbonate,Form-I
same,crystal form of the precipitated crystals,[1]; solvent dimethyl sulfoxide,—
same,crystal form of the precipitated crystals,[1]; solvent ethanol,Form-I
same,crystal form of the precipitated crystals,[1]; [10],Form-I
same,crystal form of the precipitated crystals,[1]; solvent ethanol:water 20:80,Form-I
same,crystal form of the precipitated crystals,[1]; solvent ethyl acetate,Form-I
same,crystal form of the precipitated crystals,[1]; solvent heptane,Form-I
same,crystal form of the precipitated crystals,[1]; solvent isopropyl acetate,Form-I
same,crystal form of the precipitated crystals,[1]; solvent isopropyl ether,Form-I
same,crystal form of the precipitated crystals,[1]; solvent methanol,Form-I
same,crystal form of the precipitated crystals,[1]; solvent methanol:water 80:20,Form-I
same,crystal form of the precipitated crystals,[1]; solvent methanol:water 95:5,Form-I
same,crystal form of the precipitated crystals,[1]; solvent methyl acetate,Form-I
same,crystal form of the precipitated crystals,[1]; solvent methyl ethyl ketone,Form-I
same,crystal form of the precipitated crystals,[1]; solvent methyl isobutyl ketone,Form-I
same,crystal form of the precipitated crystals,[1]; solvent nitromethane,Form-I
same,crystal form of the precipitated crystals,[1]; solvent t-butyl methyl ether,Form-I
same,crystal form of the precipitated crystals,[1]; solvent tetrahydrofuran,Form-I
same,crystal form of the precipitated crystals,[1]; [11],Form-I
same,crystal form of the precipitated crystals,[1]; [12],Form-I
same,crystal form of the precipitated crystals,[1]; solvent toluene,Form-I
same,crystal form of the precipitated crystals,[1]; solvent trifluoroethanol,—
same,crystal form of the precipitated crystals,[1]; solvent water,Form-I
same,crystal form of the precipitated crystals,"[2]; solvent 1,4-dioxane",solvate
same,crystal form of the precipitated crystals,[2]; [6],—
same,crystal form of the precipitated crystals,[2]; solvent 1-butanol,—
same,crystal form of the precipitated crystals,[2]; solvent 1-methoxy-2 -propanol,—
same,crystal form of the precipitated crystals,[2]; solvent 1-propanol,Form-I
same,crystal form of the precipitated crystals,[2]; solvent 2-methoxyethanol,—
same,crystal form of the precipitated crystals,[2]; solvent 2-methoxyethyl ether,—
same,crystal form of the precipitated crystals,[2]; solvent 2-propanol,—
same,crystal form of the precipitated crystals,[2]; solvent 2-propanol:water 80:20,—
same,crystal form of the precipitated crystals,[2]; solvent 2-propanol:water 95:5,—
same,crystal form of the precipitated crystals,"[2]; solvent N,N-dimethylformamide",—
same,crystal form of the precipitated crystals,[2]; solvent N-methylpyrrolidone,—
same,crystal form of the precipitated crystals,[2]; solvent acetone,Form-I
same,crystal form of the precipitated crystals,[2]; solvent acetone:water 20:80,—
same,crystal form of the precipitated crystals,[2]; solvent acetone:water 80:20,—
same,crystal form of the precipitated crystals,[2]; solvent acetone:water 95:5,—
same,crystal form of the precipitated crystals,[2]; solvent acetonitrile,—
same,crystal form of the precipitated crystals,[2]; [7],—
same,crystal form of the precipitated crystals,[2]; [8],—
same,crystal form of the precipitated crystals,[2]; [9],—
same,crystal form of the precipitated crystals,[2]; solvent chlorobenzene,—
same,crystal form of the precipitated crystals,[2]; solvent chloroform,—
same,crystal form of the precipitated crystals,[2]; solvent cyclohexane,—
same,crystal form of the precipitated crystals,[2]; solvent cyclohexanone,—
same,crystal form of the precipitated crystals,[2]; solvent dichloromethane,—
same,crystal form of the precipitated crystals,[2]; solvent dimethyl carbonate,—
same,crystal form of the precipitated crystals,[2]; solvent dimethyl sulfoxide,—
same,crystal form of the precipitated crystals,[2]; solvent ethanol,Form-I
same,crystal form of the precipitated crystals,[2]; [10],Form-I
same,crystal form of the precipitated crystals,[2]; solvent ethanol:water 20:80,—
same,crystal form of the precipitated crystals,[2]; solvent ethyl acetate,—
same,crystal form of the precipitated crystals,[2]; solvent heptane,—
same,crystal form of the precipitated crystals,[2]; solvent isopropyl acetate,—
same,crystal form of the precipitated crystals,[2]; solvent isopropyl ether,—
same,crystal form of the precipitated crystals,[2]; solvent methanol,Form-I
same,crystal form of the precipitated crystals,[2]; solvent methanol:water 80:20,Form-I
same,crystal form of the precipitated crystals,[2]; solvent methanol:water 95:5,—
same,crystal form of the precipitated crystals,[2]; solvent methyl acetate,—
same,crystal form of the precipitated crystals,[2]; solvent methyl ethyl ketone,—
same,crystal form of the precipitated crystals,[2]; solvent methyl isobutyl ketone,—
same,crystal form of the precipitated crystals,[2]; solvent nitromethane,—
same,crystal form of the precipitated crystals,[2]; solvent t-butyl methyl ether,—
same,crystal form of the precipitated crystals,[2]; solvent tetrahydrofuran,—
same,crystal form of the precipitated crystals,[2]; [11],—
same,crystal form of the precipitated crystals,[2]; [12],—
same,crystal form of the precipitated crystals,[2]; solvent toluene,—
same,crystal form of the precipitated crystals,[2]; solvent trifluoroethanol,—
same,crystal form of the precipitated crystals,[2]; solvent water,—
same,crystal form of the precipitated crystals,[3]; solvent acetone,—
same,crystal form of the precipitated crystals,[3]; solvent acetonitrile,—
same,crystal form of the precipitated crystals,[3]; solvent dimethyl sulfoxide,Form-I
same,crystal form of the precipitated crystals,[3]; solvent nitromethane,—
same,Crystal form,"[4]; dissolving solvent 2-methoxyethanol, poor solvent cyclohexane",Form-I
same,Crystal form,"[4]; dissolving solvent 2-methoxyethanol, poor solvent isopropyl acetate",Form-I
same,Crystal form,"[4]; dissolving solvent 2-methoxyethanol, poor solvent t-butyl methyl ether",Form-I
same,Crystal form,"[4]; dissolving solvent 2-methoxyethanol, poor solvent water",—
same,Crystal form,"[4]; dissolving solvent N,N-dimethylformamide, poor solvent 2-propanol",Form-I
same,Crystal form,"[4]; dissolving solvent N,N-dimethylformamide, poor solvent diethyl ether",Form-I
same,Crystal form,"[4]; dissolving solvent N,N-dimethylformamide, poor solvent isopropyl acetate",Form-I
same,Crystal form,"[4]; dissolving solvent N,N-dimethylformamide, poor solvent t-butyl methyl ether",Form-I
same,Crystal form,"[4]; dissolving solvent N,N-dimethylformamide, poor solvent water",Form-I
same,Crystal form,"[4]; dissolving solvent N-methylpyrrolidone, poor solvent 2-propanol",Form-I
same,Crystal form,"[4]; dissolving solvent N-methylpyrrolidone, poor solvent ethyl acetate",Form-I
same,Crystal form,"[4]; dissolving solvent N-methylpyrrolidone, poor solvent toluene",Form-I
same,Crystal form,"[4]; dissolving solvent N-methylpyrrolidone, poor solvent water",Form-I
same,Crystal form,"[4]; dissolving solvent acetone:water 80:20, poor solvent 2-propanol",—
same,Crystal form,"[4]; dissolving solvent acetone:water 80:20, poor solvent water",Form-II
same,Crystal form,"[4]; dissolving solvent dimethyl sulfoxide, poor solvent 2-propanol",Form-I
same,Crystal form,"[4]; dissolving solvent dimethyl sulfoxide, poor solvent diisopropyl ether",—
same,Crystal form,"[4]; dissolving solvent dimethyl sulfoxide, poor solvent ethyl acetate",Form-I
same,Crystal form,"[4]; dissolving solvent dimethyl sulfoxide, poor solvent t-butyl methyl ether",Form-I
same,Crystal form,"[4]; dissolving solvent dimethyl sulfoxide, poor solvent water",—
same,Crystal form,"[4]; dissolving solvent tetrahydrofuran:water 80:20, poor solvent water",Form-I
same,Crystal form,"[4]; dissolving solvent trifluoroethanol, poor solvent cyclohexane",—
same,Crystal form,"[4]; dissolving solvent trifluoroethanol, poor solvent diisopropyl ether",Form-I
same,Crystal form,"[4]; dissolving solvent trifluoroethanol, poor solvent water",—
same,JAK2 tyrosine kinase inhibitory action,[5],excellent JAK2 tyrosine kinase inhibitory action
